For one compound, inhibition and remaining activity results are on record in patent US9492471B2, “Methods of treating a disease or disorder associated with Bruton'S Tyrosine Kinase” (Celgene Avilomics Research, Inc., priority 2013, dated 2016).

The structures appear in SMILES notation. Like-named read-outs stand apart in the source and are kept apart here.

What all share (assay): HotSpot kinase profiling
Type in all cases: biochemical

For assay [1], the target named is T1, c-MET (Homo sapiens, UniProt P08581).
T1 construct: purchased Reaction Biology Corp
T1 sequence (P08581 25-1390): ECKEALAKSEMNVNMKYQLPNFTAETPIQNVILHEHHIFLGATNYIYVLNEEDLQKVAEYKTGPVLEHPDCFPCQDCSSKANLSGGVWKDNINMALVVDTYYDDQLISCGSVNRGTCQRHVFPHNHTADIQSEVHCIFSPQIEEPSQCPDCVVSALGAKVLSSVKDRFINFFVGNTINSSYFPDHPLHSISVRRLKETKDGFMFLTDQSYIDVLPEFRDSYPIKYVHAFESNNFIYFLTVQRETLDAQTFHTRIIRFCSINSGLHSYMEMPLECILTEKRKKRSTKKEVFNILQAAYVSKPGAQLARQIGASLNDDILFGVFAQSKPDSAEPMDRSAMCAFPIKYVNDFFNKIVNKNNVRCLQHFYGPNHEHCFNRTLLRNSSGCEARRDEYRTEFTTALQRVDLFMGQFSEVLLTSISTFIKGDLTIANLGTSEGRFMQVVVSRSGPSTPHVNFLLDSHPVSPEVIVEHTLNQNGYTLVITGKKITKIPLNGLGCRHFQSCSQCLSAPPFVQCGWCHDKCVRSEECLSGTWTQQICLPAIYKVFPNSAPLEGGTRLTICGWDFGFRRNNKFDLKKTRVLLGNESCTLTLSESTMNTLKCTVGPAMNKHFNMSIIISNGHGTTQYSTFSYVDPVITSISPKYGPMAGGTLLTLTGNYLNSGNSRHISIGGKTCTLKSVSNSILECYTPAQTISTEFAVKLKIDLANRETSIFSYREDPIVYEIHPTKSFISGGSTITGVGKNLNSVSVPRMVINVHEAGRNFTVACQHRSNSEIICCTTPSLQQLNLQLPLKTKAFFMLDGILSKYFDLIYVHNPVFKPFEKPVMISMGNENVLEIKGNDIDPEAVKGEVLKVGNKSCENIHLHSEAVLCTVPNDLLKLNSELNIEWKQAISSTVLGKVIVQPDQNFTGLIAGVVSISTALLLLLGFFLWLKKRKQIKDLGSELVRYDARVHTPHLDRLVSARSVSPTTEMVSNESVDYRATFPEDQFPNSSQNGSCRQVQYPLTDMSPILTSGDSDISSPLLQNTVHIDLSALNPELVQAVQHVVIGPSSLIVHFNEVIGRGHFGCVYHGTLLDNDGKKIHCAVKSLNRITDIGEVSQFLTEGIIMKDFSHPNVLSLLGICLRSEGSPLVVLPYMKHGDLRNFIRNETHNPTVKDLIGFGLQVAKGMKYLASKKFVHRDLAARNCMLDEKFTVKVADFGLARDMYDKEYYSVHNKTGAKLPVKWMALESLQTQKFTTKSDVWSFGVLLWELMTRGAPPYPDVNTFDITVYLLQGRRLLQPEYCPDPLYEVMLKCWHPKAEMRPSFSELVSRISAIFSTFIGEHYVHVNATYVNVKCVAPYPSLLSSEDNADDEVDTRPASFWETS
The method in brief: (§1)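 Radiometric kinase assay with P81 filter capture; each kinase was added to fresh substrate plus cofactors in reaction buffer and incubated 2 h at room temperature. Unreacted phosphate was washed off with 0.1% phosphoric acid before detection; percent inhibition is relative to DMSO control, averaged over replicates.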

For assay [2], the target named is T2, CDK9/cyclin K (Homo sapiens, UniProt P50750).
T2 construct: purchased Reaction Biology Corp
T2 sequence (P50750 whole entry): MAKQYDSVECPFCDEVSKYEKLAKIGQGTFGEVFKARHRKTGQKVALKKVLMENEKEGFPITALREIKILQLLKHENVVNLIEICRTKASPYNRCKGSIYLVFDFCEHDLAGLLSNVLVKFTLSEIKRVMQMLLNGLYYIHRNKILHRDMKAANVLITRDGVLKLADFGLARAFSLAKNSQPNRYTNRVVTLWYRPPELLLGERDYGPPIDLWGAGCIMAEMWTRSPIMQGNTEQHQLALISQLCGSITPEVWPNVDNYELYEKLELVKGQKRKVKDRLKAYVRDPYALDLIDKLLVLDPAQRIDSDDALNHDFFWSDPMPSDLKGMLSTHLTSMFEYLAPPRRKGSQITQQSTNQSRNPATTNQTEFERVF
T2 sequence (O75909 whole entry partner): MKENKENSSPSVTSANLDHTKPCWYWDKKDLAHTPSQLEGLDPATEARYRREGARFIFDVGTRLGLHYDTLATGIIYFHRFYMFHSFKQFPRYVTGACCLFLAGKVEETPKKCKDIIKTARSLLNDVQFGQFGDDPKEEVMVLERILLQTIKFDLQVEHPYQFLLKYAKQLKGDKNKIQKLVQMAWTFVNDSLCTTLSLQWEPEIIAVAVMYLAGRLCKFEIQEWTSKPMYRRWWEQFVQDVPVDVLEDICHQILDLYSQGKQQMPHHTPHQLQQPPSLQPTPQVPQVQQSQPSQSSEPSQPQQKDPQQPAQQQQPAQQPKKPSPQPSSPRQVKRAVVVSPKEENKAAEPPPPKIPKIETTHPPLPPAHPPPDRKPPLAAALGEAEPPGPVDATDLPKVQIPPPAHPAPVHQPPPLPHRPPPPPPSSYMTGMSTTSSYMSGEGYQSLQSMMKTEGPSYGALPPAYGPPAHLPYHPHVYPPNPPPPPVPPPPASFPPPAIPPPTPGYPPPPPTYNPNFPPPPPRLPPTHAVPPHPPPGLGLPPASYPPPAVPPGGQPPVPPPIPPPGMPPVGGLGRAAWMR
The gist of the method: as §1

The target of assay [3] is T3, NEK3 (Homo sapiens, UniProt P51956).
T3 construct: purchased Reaction Biology Corp
T3 sequence (P51956 1-506): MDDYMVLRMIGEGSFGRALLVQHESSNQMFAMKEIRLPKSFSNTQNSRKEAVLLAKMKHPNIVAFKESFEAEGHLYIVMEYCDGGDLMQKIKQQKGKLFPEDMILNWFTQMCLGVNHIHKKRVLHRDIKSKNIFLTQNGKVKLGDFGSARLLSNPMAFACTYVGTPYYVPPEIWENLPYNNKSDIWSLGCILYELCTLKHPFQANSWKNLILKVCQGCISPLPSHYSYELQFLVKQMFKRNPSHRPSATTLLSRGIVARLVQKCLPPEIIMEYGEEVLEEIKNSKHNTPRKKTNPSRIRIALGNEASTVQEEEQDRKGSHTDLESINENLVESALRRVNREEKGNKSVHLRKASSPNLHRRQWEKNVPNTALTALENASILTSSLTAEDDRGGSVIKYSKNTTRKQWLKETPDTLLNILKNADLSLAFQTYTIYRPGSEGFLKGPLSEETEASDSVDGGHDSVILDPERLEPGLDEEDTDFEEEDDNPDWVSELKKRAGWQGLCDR
The gist of the method:
as §1

In assay [4] the target is T4, PKN1/PRK1 (Homo sapiens, UniProt Q16512).
T4 construct: purchased Reaction Biology Corp
T4 sequence (Q16512 whole entry): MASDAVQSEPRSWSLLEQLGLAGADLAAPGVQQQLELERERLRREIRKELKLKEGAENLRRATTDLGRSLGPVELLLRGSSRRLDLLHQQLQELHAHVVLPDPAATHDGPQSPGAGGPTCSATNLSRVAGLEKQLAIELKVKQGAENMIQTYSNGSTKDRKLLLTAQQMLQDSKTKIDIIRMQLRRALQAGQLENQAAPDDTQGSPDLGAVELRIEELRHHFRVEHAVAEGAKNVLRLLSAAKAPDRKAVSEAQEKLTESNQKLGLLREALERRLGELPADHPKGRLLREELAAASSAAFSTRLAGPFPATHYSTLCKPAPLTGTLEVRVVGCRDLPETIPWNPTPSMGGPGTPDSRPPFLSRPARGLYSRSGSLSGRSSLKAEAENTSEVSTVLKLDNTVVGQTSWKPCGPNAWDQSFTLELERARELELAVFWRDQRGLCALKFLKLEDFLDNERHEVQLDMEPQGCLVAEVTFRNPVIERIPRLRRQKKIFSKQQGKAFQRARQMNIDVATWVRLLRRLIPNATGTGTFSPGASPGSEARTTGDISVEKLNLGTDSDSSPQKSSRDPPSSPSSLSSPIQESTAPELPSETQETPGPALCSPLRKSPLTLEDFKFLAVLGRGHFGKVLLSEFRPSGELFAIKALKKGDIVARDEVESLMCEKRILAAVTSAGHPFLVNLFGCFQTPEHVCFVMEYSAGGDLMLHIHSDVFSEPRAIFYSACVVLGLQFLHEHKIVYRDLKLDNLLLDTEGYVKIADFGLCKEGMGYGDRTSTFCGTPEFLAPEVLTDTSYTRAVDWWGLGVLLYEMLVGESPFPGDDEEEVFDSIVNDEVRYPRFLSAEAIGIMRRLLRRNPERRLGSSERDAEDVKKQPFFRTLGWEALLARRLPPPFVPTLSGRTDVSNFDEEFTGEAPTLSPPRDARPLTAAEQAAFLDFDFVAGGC
The method in brief:
as §1

Assay [5] deals with T5, LYN (Homo sapiens, UniProt P07948).
T5 construct: purchased Reaction Biology Corp
T5 sequence (P07948 whole entry): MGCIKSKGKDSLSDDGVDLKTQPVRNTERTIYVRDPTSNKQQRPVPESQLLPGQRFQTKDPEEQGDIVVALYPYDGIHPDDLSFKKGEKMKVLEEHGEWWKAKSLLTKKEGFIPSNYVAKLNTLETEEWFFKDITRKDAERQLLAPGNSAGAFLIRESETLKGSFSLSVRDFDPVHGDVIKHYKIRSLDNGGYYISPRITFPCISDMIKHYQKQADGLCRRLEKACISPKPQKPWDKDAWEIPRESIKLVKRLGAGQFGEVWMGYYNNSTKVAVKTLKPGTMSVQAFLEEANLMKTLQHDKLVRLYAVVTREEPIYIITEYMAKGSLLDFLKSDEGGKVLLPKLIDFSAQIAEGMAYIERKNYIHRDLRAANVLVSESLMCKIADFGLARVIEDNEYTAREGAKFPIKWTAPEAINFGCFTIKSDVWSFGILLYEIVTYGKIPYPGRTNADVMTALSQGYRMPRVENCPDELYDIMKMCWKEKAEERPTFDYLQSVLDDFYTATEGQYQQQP
The gist of the method: as §1

Assay [6] concerns the target T6, CK1g2 (Homo sapiens, UniProt P78368).
T6 construct: purchased Reaction Biology Corp
The gist of the method: as §1

Assay [7] concerns the target T7, PKCepsilon (Homo sapiens, UniProt Q02156).
T7 construct: purchased Reaction Biology Corp
T7 sequence (Q02156 1-737): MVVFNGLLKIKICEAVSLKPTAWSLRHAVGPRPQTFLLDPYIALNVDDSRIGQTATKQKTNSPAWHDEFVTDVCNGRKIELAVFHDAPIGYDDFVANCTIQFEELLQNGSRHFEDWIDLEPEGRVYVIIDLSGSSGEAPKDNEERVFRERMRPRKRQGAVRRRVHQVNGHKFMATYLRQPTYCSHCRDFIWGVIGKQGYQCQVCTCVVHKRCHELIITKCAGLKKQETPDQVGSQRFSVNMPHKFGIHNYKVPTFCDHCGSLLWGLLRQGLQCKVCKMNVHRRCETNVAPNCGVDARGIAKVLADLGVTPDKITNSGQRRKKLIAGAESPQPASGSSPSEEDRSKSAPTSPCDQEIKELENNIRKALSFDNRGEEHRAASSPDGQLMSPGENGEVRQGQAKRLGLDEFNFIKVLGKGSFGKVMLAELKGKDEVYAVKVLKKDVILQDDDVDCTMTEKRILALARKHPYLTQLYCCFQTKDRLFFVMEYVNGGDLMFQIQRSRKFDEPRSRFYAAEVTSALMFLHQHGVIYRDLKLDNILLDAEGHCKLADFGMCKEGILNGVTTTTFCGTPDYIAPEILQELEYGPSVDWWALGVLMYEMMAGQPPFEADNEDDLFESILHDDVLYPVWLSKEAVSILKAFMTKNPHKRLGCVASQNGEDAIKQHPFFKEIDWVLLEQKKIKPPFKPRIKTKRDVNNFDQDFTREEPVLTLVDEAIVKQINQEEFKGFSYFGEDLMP
The method in brief:
as §1

In assay [8] the target is T8, DYRK2 (Homo sapiens, UniProt Q92630).
T8 construct: purchased Reaction Biology Corp
T8 sequence (Q92630 1-601): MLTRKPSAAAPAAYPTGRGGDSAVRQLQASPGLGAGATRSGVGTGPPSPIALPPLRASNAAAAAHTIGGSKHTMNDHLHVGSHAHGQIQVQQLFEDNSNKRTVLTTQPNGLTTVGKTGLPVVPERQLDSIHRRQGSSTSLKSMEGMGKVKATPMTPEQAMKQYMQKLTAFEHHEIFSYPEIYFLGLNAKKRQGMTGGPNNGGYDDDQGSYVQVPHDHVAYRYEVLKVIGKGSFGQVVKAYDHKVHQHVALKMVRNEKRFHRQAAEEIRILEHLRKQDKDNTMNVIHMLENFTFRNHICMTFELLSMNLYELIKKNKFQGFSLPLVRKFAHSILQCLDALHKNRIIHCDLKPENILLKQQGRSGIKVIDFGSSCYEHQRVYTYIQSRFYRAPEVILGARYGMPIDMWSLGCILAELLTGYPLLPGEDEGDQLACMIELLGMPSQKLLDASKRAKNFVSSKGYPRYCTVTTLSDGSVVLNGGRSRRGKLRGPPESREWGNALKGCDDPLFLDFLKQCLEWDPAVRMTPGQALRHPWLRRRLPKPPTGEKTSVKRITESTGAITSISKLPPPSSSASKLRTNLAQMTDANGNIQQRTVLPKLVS
The gist of the method:
as §1

The mark [9] stands for this setting: read-out: % Enzyme Activity (relative to DMSO controls) Run 1.
Where [10] appears, read: read-out: % Enzyme Activity (relative to DMSO controls) Run 2.

T6 sequence (P78368 whole entry): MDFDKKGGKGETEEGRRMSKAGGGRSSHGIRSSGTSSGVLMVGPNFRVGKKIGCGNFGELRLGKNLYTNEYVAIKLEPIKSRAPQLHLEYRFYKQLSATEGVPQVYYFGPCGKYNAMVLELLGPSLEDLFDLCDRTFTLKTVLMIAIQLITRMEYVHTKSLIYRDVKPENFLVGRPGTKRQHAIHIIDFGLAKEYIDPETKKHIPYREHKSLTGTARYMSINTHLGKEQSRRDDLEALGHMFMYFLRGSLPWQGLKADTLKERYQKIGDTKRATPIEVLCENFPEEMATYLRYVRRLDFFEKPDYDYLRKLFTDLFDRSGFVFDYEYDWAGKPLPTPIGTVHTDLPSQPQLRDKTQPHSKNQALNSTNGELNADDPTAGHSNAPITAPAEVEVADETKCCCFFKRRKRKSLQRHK

Usually inhibition stands for the drop in the measured response relative to a control, in per cent. Consider `C=CC(=O)Nc1cccc(Nc2nc(Nc3ccc(OCCOC)c(F)c3)ncc2F)c1` [Compound 2], for which the inhibition at 3 µM in assay [1] is -1.49%; in assay [2], 18.1%; in assay [3], 24.1%; in assay [4] it was 6.94%; in assay [5], 27.5%; in assay [6], 12.6%. Further, the inhibition at 3 µM turned out to be 6.29% in assay [7] and 38.5% in assay [8]. In addition, the remaining activity at 3 µM in assay [1] (setting [9]) was 103%; in assay [1] (setting [10]), 100%; in assay [2] (setting [9]), 81.7%; in assay [2] (setting [10]), 82.2%; in assay [3] (setting [9]), 76.7%; in assay [3] (setting [10]) it was 75.1%. Also, the remaining activity at 3 µM in assay [4] (setting [9]) was 93.8%; in assay [4] (setting [10]), 92.3%; in assay [5] (setting [9]), 71.7%; in assay [5] (setting [10]), 73.2%; in assay [6] (setting [9]), 89.1%; in assay [6] (setting [10]), 85.7%. The remaining activity at 3 µM in assay [7] (setting [9]) was determined as 93.2%; in assay [7] (setting [10]), 94.2%; in assay [8] (setting [9]), 61%; in assay [8] (setting [10]), 62.1%.
